The values that follow come from PMC3519852, “Non-Traditional Antibacterial Screening Approaches for the Identification of Novel Inhibitors of the Glyoxylate Shunt in Gram-Negative Pathogens” (PLoS ONE, 2012).

Assay [1] deals with T1, MS (Pseudomonas aeruginosa, UniProt Q9I636).
T1 construct: gene glcB
In words: DTNB detection of coenzyme A at […] nm. Format: biochemical.

For assay [2], the target named is T2, ICL (Pseudomonas aeruginosa, UniProt Q9I0K4).
T2 construct: gene PA2634
T2 sequence (Q9I0K4 1-531): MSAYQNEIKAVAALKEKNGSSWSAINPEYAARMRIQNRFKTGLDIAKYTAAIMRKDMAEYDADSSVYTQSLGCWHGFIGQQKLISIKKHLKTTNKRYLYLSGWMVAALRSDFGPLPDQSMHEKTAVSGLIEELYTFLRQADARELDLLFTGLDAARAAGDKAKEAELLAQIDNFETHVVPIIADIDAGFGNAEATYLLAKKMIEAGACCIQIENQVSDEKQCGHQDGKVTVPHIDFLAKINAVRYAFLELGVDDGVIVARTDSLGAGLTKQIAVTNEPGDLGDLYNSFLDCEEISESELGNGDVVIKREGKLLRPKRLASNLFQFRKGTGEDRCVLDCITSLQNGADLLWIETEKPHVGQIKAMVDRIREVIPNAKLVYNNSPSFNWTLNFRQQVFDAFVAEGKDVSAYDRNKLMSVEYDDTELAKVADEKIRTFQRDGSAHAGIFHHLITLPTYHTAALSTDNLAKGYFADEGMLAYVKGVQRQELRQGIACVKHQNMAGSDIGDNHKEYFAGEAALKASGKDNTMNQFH
In words: absorbance at […] nm, phenylhydrazine assay. It is filed as biochemical.

T1 sequence (Q9I636 whole entry): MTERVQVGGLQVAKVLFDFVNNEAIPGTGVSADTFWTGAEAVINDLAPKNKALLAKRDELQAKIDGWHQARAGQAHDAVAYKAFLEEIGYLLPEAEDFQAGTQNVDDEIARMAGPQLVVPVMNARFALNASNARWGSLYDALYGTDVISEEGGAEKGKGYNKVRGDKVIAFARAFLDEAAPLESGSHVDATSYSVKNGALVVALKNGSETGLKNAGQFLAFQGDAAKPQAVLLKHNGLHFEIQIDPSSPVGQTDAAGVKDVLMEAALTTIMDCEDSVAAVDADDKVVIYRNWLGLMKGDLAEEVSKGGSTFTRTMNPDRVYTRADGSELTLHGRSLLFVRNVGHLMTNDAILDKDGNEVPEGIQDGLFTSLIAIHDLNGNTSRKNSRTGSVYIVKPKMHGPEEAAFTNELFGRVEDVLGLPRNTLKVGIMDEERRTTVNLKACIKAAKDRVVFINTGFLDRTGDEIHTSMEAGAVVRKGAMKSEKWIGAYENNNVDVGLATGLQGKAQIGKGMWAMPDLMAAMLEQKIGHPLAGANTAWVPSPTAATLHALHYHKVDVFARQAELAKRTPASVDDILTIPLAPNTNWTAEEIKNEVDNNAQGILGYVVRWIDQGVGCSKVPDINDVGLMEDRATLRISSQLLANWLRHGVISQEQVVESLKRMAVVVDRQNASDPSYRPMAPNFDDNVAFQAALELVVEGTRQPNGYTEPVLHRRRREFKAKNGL

On to `COc1ccccc1N1CCN(CCCNC(=O)C(Cc2ccc(F)c(F)c2)C(C)=O)CC1` (racemic) [compound 2, Compound 2], for which the values for the IC50 in assay [1] and in assay [2] were 1770 nM and 240 nM, respectively.

For `Nc1nnc(SCc2ccc(O)c3ncccc23)s1` [compound 1, Compound 1], the IC50 – broadly, the concentration that gives 50% inhibition – stood at 180 nM in assay [1] and 690 nM in assay [2].

For `CC(C)(C)OC(=O)/N=C(\NC(=O)OC(C)(C)C)Nc1cc(Cl)ccn1` [compound 3, Compound 3], the IC50 was determined as 5300 nM in assay [1] and 170 nM in assay [2].

Consider `CC(C)(C)OC(=O)NC(=Nc1cc(CCC(=O)O)ccn1)NC(=O)OC(C)(C)C` [compound 4, Compound 4], for which the values for the IC50 in assay [1] and in assay [2] were 1290 nM and 30 nM, respectively.

For `N=C(N)Nc1cccc2ncccc12` [compound 7, Compound 7], the IC50 in assay [1] worked out at 6930 nM; in assay [2], 190 nM.

In the case of `N=C(N)Nc1ccc2nn[nH]c2c1` [compound 8, Compound 8], the IC50 was determined as 8880 nM in assay [1] and 370 nM in assay [2].
